In US10016432B2 (Legacy Emanuel Hospital & Health Center, priority 2016, dated 2018):
Where “and” joins values, the source holds several entries; their conditions need not be identical. Equal values may be shown once. Entries after “also recorded” stand apart in the source; their conditions may differ. Values belong to the compound of their own block, whether it stands above or below them.

What was measured:
hAdK [1] = target: T1, hAdK (Homo sapiens, UniProt P55263); details: read-out: Km as substrate of hAdK; cited from earlier work
T1 construct: purchased
T1 sequence (P55263 whole entry): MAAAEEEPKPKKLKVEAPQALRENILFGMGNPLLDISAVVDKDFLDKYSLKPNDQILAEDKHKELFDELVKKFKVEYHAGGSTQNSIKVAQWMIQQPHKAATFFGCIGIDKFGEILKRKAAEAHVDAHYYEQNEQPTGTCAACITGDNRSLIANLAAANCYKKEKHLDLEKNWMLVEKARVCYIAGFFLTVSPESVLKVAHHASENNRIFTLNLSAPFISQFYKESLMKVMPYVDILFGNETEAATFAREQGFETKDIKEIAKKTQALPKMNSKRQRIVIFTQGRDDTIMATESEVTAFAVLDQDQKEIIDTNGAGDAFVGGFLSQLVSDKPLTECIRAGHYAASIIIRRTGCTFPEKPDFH

human P2Y4 = target: T2, human P2Y4 (Homo sapiens, UniProt P51582); experiment: calcium transients, P2Y4 in 1321N1 astrocytoma cells; assay type: cell-based; details: 10 μM
T2 construct: expressed in transfected cells; host or cells: 1321N1 astrocytoma cells
T2 sequence (P51582 whole entry): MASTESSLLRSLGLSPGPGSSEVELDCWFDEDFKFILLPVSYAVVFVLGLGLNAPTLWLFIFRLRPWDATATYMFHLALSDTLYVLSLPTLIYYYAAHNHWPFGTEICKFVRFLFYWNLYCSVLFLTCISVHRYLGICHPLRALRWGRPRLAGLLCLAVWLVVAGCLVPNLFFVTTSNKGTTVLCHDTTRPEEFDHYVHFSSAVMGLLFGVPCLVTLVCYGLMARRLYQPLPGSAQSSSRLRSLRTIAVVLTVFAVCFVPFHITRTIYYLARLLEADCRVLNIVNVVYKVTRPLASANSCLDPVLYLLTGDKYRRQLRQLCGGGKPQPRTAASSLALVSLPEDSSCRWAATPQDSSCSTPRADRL
Source text: (§1) It is possible that transient treatment with AdK inhibitors would have long-lasting therapeutic benefits for treatment of CNS disorders, not only by raising the basal level of AR activation but also through epigenetic reprogramming. […] SAH in turn inhibits DNA methyltransferases through product inhibition. Because the epigenetic effects related to changes in the DNA methylation status would persist, it might be possible to reduce the duration of drug administration, thus avoiding toxicities associated with prolonged, chronic dosing. A transient dosing regimen might also avoid possible side effects, such as liver toxicity. Compound 38a was submitted to the Psychoactive Drug Screening Program (PDSP) for screening at 45 receptors, channels and transporters. […] Nevertheless, the offtarget interactions of the present set of compounds would have to be examined more extensively.

ADK-S cells = experiment: DNA methylation in ADK-S cells
[2] = tested on: 45 receptors, channels and transporters; experiment: PDSP screening at 45 receptors, channels and transporters (other off-target sites); assay type: binding; details: 10 μM
Source text: as §1

DNMT activity = DNMT activity in brain nuclear protein extracts of treated mice; assay type: in vivo, Swiss Webster mice; details: 3.1 mg/kg i.p., 3 doses every 12 hours, 1 hour after 3rd dose, vs vehicle
Method: (§2) Epigenetic activity in the brain. […] Tissue was harvested 1 hour after the 3rd dose.

human P2Y2 = target: T3, human P2Y2 (Homo sapiens, UniProt P41231); experiment: calcium transients, P2Y2 in 1321N1 astrocytoma cells; assay type: cell-based; details: 10 μM
T3 construct: expressed in transfected cells; host or cells: 1321N1 astrocytoma cells
T3 sequence (P41231 whole entry): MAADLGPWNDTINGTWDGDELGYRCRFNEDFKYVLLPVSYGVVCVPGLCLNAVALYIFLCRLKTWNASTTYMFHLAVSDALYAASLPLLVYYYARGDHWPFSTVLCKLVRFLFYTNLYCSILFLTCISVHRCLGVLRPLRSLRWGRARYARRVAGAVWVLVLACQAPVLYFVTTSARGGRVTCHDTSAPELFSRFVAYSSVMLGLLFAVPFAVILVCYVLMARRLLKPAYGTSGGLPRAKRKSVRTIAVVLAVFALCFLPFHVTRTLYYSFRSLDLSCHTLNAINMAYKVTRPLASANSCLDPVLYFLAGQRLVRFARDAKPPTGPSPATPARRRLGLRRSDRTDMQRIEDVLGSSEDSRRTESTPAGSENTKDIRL
Source text: as §1

[3] = target: human 5HT7 (serotonin) receptor (Homo sapiens, UniProt P34969); experiment: PDSP radioligand binding, 5HT7; details: read-out: Ki, inhibition of radioligand binding
human 5HT7 (serotonin) receptor, sequence (P34969 whole entry): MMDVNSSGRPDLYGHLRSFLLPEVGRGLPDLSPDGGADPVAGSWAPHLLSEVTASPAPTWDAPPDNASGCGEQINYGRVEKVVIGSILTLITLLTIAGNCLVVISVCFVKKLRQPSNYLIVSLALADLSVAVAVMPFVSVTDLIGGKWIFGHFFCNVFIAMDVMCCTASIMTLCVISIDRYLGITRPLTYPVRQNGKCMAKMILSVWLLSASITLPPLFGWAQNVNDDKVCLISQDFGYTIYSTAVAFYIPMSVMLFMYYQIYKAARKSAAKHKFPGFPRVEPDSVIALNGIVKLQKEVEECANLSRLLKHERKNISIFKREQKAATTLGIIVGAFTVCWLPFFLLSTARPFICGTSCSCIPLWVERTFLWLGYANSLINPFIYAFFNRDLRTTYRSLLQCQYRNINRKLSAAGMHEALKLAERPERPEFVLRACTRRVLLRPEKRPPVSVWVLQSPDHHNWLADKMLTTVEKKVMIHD
Source text: as §1

ADK-null cells = experiment: DNA methylation in ADK-null cells (off-target); assay type: cell-based; details: vs vehicle
Source text: To test for nonspecific activities of ADK inhibitors on DNA methylation, we tested our set of inhibitors on ADK-null cells, which are hypomethylated and can be used to identify treatments that increase DNA methylation (whereas ADK-L cells display a hypermethylated ceiling effect).

human P2Y1 = target: T4, human P2Y1 (Homo sapiens, UniProt P47900); experiment: calcium transients, P2Y1 in 1321N1 astrocytoma cells; assay type: cell-based; details: 10 μM
T4 construct: expressed in transfected cells; host or cells: 1321N1 astrocytoma cells
T4 sequence (P47900 whole entry): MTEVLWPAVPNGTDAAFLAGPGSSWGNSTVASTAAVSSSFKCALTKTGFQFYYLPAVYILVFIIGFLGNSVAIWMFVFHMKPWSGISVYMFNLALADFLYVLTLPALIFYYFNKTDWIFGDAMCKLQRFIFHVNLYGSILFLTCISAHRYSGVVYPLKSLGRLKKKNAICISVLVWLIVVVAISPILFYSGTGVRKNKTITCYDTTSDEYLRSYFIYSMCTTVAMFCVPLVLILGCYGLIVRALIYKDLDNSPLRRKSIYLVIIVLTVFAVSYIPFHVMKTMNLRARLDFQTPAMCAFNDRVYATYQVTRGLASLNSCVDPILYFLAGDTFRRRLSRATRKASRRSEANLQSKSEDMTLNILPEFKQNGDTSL
Source text: as §1

[4] = side effects: mouse activity in an open field; assay type: in vivo, mice; details: epigenetically active dose, i.p.
Method: Side effects were indexed by mouse activity in an open field for 20 minutes following a single i.p. injection of vehicle, 5-ITU or compound 38a. […] Data are presented as the mean±SEM and analyzed by one-way ANOVA then uncorrected Fisher's LSD test with all comparisons relative to vehicle or Kruskal-Wallis then Dunn's multiple comparisons.

ADK-L cells = experiment: DNA methylation (5 mC ELISA) in ADK-L cells; parameters: reduction of DNA methylation in ADK-L cells: dose or concentration left out as unconfirmed; details: 24 hours
Method: The in vitro IC50 for each conventional ADK inhibitor was selected as the treatment dose. […] Purified genomic DNA (100 ng) was run on a 5-methylcytosine (5 mC) ELISA. Data shown in FIG. 11 are represented as the mean±SEM (n=8-9) and analyzed by one-way ANOVA followed by Tukey's multiple comparisons test (C) or Krus-kal-Wallis test followed by uncorrected Dunn's test with all comparisons relative to ADK-L vehicle (D).

[5] = polarity judged by tendency to dissolve in organic solvents; assay type: physicochemical; details: based on tendency to dissolve in organic solvents
Source text: The bioavailability and the in vivo activity of these inhibitors remain to be determined. Other nucleoside derivatives were protective in seizure models when administered peripherally. […] Among the new (S)-methanocarba AdK inhibitors, 5′-deoxy analogue 38a and especially the fluoro analogues 38b and 38c appear to be the least polar, based on their tendency to dissolve in organic solvents.

hAdK [6] = target: T1, hAdK; experiment: commercial nonisotopic spectrophotometric hAdK kinetic activity assay (340 nm, inosine as substrate); assay type: biochemical
Method: The nucleoside derivatives were tested for inhibitory activity at hAdK using a commercial, nonisotopic assay for the measurement of hAdK kinetic activity based on continuous monitoring of enzymatic activity at 340 nm (appearance of reduced nicotinamide-adenine dinucleotide from a coupled enzymatic reaction). The hAdK-catalyzed phosphorylation of inosine to inosine 5′-monophosphate is coupled to the inosine 5′-monophosphate dehydrogenase-dependent oxidation of the product. […] Percent inhibition of hAdK activity was calculated by determining the slope of the hAdK reaction during the linear phase of the enzymatic reaction (first 40 min) (see Table 1, below). […] Each inhibitor was analyzed at the following concentrations (μM): of 50, 20, 1, 0.50, 0.10, 0.020 and 0.010.

[7] = tested on: Hippocampal DNA methylation; experiment: hippocampal / brain DNA methylation in treated mice; assay type: in vivo, Swiss Webster mice; details: 3.1 mg/kg i.p., 3 doses every 12 hours, 1 hour after 3rd dose, vs controls
Method: as §2

human P2Y11 = target: T5, human P2Y11 (Homo sapiens, UniProt Q96G91); experiment: calcium transients, P2Y11 in 1321N1 astrocytoma cells; assay type: cell-based; details: 10 μM
T5 construct: expressed in transfected cells; host or cells: 1321N1 astrocytoma cells
T5 sequence (Q96G91 1-374): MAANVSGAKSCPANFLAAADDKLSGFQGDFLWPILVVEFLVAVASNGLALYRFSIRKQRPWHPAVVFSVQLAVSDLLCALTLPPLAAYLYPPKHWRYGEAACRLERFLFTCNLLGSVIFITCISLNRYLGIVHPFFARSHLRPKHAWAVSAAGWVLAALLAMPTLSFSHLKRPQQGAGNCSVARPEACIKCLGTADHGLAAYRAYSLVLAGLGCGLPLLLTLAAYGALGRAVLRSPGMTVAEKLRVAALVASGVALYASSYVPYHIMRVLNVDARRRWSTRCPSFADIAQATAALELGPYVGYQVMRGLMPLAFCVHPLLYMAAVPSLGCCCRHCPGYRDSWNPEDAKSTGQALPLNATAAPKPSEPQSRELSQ
Source text: as §1

[8] = target: T6, protease-activated receptor (PAR)1 (Homo sapiens, UniProt P25116); experiment: PAR1 agonist/antagonist test in mouse KOLF cells; assay type: cell-based; details: 10 μM
T6 construct: expressed in transfected cells; host or cells: mouse KOLF cells
T6 sequence (P25116 22-425): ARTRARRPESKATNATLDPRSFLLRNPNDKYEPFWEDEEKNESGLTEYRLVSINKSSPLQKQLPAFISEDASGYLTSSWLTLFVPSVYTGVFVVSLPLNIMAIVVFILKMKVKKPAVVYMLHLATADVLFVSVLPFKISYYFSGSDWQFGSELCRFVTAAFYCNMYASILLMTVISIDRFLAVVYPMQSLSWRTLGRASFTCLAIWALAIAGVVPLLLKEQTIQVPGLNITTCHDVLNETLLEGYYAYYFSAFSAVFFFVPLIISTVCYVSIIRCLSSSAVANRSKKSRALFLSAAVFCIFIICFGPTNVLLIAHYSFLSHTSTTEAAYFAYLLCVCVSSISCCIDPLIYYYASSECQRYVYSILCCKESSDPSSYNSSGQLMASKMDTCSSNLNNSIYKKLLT
Source text: as §1

Compound: Nc1ncnc2c1ncn2[C@@H]1O[C@H](CO)[C@@H](O)[C@H]1O [adenosine]
Km (hAdK [1]): 0.7 µM

agonist or antagonist activity at P2Y4 (human P2Y4): inactive
inhibition of binding at the other off-target sites [2]: < 50%
agonist or antagonist activity at P2Y2 (human P2Y2): inactive
Ki [3]: 710 nM
agonist or antagonist activity at P2Y1 (human P2Y1): inactive
polarity [5]: least polar
concentration at which inhibition begins to vary significantly from 2 (hAdK [6]; Bonferroni post hoc vs 2): never significantly varied from 2
potency relative to reference compound 2 (hAdK [6]; hAdK inhibition): approximately two-fold less potent
IC50 (hAdK [6]; hAdK, inosine as substrate, read-out: IC50 for hAdK): < 100 nM and 88 nM
agonist or antagonist activity at P2Y11 (human P2Y11): inactive
agonist or antagonist activity at PAR1 [8]: inactive
Compound: C[C@@H]1[C@@H](O)[C@@H](O)[C@@]2(n3cc(-c4ccccc4)c4c(Nc5ccccc5)ncnc43)C[C@@H]12 [Compound 38a]
effect on DNA methylation in ADK-S cells (ADK-S cells): without any off-target effects
DNMT activity in brain nuclear protein extracts (DNMT activity): significantly reduced
DNMT activity in brain nuclear protein extracts (DNMT activity; listed as 38A): reduced
effect on DNA methylation in ADK-null cells (non-specific) (ADK-null cells): greater specificity
effect on DNA methylation in ADK-null cells (non-specific) (ADK-null cells; listed as 38A): no effect on DNA methylation; also recorded: without any off-target effects
sedation / sedative side effects [4]: not associated with any overt signs of sedation
effect on DNA methylation in ADK-L cells, in words (ADK-L cells; 55 and 38a at 26 nM, known inhibitors at their IC50): reduces DNA methylation specifically in ADK-L cells
reduction of DNA methylation in ADK-L cells (ADK-L cells; […] nM (equimolar), vs ADK-L vehicle): > 50%
hAdK inhibition, in words (hAdK [6]): commensurate with 2 at most concentrations
hippocampal (brain) DNA methylation levels [7]: reduced
hippocampal (brain) DNA methylation levels ([7]; listed as 38A): reduced; also recorded: reduces DNA methylation in the hippocampus
